Data on two compounds can be found in ChEMBL document CHEMBL1201862, “PubChem BioAssay data set” (2004).

One assay has as its target T1, Exodeoxyribonuclease V (Escherichia coli (strain K12), UniProt P04993+P07648+P08394).
T1 sequence (P04993 whole entry): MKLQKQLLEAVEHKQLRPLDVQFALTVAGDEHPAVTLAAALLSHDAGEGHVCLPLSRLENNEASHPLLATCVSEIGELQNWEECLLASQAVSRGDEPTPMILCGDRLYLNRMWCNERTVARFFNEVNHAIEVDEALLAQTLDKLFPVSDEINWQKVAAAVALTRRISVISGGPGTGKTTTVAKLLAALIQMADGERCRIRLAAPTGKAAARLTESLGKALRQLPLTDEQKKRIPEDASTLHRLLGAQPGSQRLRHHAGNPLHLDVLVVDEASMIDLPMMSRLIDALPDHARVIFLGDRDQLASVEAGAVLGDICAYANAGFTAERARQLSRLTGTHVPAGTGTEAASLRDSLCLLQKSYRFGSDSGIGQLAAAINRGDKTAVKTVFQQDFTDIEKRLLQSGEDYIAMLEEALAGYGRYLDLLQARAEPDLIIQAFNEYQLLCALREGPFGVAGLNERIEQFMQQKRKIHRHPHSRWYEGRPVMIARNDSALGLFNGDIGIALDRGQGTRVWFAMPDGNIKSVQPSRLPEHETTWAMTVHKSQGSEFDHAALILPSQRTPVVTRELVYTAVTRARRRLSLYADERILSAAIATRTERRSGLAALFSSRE
T1 sequence (P07648 whole entry): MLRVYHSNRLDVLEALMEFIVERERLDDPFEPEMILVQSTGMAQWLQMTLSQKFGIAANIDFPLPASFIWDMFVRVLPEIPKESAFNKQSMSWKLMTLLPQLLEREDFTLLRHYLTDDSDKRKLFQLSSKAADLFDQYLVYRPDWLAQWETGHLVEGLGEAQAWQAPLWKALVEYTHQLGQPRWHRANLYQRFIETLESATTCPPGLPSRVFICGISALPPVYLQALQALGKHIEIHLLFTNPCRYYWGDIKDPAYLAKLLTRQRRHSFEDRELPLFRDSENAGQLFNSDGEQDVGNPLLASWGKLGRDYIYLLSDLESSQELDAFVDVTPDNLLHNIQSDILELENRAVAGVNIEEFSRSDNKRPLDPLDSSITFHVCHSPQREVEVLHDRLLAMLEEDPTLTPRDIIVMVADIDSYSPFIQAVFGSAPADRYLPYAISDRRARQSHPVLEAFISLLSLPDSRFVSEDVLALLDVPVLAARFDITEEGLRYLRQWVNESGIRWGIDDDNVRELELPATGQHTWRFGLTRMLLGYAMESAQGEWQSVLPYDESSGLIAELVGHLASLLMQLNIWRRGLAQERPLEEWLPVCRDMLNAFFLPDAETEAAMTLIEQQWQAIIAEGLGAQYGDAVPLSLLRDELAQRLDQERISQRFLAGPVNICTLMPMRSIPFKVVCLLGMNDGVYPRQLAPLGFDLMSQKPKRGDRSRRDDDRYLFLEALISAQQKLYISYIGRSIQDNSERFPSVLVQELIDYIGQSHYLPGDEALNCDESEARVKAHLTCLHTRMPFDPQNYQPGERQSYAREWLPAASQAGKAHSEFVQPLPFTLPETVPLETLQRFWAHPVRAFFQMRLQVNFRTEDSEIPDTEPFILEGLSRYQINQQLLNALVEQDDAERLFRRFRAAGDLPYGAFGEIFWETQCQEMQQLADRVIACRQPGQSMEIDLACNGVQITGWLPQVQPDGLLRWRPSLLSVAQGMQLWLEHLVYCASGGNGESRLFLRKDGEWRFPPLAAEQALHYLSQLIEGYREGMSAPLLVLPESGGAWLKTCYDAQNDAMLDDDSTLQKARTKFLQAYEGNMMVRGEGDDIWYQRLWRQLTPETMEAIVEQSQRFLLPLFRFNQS
T1 sequence (P08394 whole entry): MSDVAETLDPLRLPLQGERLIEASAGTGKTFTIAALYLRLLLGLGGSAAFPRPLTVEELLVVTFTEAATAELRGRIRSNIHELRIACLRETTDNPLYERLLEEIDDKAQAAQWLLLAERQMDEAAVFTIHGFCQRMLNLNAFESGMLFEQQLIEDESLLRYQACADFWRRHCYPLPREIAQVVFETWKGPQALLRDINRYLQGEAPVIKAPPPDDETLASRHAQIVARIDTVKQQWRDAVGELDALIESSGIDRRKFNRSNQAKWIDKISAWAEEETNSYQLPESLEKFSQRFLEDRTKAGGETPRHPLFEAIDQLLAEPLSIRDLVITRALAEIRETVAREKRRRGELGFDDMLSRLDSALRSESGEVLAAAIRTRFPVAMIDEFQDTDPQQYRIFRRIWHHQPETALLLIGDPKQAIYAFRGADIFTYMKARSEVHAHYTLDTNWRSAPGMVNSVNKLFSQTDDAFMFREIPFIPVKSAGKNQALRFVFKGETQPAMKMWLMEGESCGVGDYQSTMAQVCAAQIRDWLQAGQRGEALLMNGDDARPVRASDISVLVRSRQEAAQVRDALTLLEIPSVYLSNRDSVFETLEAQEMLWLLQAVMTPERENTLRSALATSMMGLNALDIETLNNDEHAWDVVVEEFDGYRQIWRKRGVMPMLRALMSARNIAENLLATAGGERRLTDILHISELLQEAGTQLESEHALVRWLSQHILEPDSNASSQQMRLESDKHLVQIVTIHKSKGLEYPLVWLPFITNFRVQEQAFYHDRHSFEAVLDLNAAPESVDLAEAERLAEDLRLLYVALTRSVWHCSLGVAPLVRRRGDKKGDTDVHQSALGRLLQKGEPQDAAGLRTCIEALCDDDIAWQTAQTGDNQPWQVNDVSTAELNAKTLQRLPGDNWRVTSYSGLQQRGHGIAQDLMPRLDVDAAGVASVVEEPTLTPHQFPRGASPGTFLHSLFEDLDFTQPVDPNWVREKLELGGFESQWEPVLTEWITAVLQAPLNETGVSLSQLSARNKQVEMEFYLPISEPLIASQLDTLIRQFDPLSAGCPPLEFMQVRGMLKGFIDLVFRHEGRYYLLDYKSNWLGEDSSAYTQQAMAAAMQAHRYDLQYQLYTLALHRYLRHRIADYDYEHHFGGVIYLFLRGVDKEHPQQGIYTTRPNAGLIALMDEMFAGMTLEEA
The assay is described as follows: RecBCD inhibition via phage-restricted bacterial growth – absorbance, V66 E. coli, mutant T4 phage, counter-screen for AddAB inhibitor project, dose response (AID 492957). The format is functional, cell-based, Escherichia coli str. K-12 substr. MG1655.

In the next assay the target is Paired box protein Pax-8 (Homo sapiens, UniProt Q06710). The assay is described as follows: PAX8 transcriptional activity inhibition in RMG-I – RMG-I cells, luciferase, cherry-pick, dose response (AID 687027).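 Further: luciferase reporter driven by Pax8 target thyroperoxidase promoter measured by SteadyGlo luminescence.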 The format is functional, cell-based.
In assay [1] the target is Peroxisome proliferator-activated receptor gamma/Nuclear receptor corepressor 2 (Homo sapiens, UniProt P37231+Q9Y618). The class given is functional.
Another assay has as its system INS1. The assay is described as follows: INS-1E survival protection against cytokine death – cell-based, luminescence, retest, dose response (AID 449756).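 Further: cell death triggered by IL-1 beta plus TNF-alpha plus IFN-gamma mixture; protective hits raise ATP signal compared with cytokine alone wells.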 The class given is functional. As to conditions: Rattus norvegicus.

Active and inactive are the calls of the source.

Sequence of Paired box protein Pax-8 (Q06710 whole entry): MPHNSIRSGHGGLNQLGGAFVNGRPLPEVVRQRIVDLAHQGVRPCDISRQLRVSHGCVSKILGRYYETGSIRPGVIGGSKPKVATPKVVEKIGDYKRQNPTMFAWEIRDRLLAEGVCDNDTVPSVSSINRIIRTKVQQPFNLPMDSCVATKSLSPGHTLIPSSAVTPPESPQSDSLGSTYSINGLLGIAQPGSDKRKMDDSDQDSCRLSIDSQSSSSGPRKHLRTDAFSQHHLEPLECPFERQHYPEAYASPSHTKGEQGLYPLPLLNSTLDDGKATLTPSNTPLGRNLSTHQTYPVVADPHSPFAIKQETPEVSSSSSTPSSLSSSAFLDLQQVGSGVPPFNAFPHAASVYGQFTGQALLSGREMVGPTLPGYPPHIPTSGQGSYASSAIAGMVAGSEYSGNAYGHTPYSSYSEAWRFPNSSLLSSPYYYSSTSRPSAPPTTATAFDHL
Sequence of Peroxisome proliferator-activated receptor gamma/Nuclear receptor corepressor 2 (P37231 whole entry): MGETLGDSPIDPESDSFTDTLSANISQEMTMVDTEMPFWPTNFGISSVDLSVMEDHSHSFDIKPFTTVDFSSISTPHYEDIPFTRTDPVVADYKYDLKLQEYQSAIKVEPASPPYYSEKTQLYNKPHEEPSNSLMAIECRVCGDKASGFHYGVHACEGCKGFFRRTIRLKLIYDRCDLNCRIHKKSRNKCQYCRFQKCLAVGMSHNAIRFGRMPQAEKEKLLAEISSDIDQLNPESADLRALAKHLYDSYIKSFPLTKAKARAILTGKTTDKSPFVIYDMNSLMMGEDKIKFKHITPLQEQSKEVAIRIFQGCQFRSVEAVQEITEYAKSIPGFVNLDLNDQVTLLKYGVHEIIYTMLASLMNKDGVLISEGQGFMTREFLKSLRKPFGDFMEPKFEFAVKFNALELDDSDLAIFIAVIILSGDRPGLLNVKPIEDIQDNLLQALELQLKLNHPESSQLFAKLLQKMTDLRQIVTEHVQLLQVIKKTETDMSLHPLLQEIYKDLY
Sequence of Peroxisome proliferator-activated receptor gamma/Nuclear receptor corepressor 2 (Q9Y618 whole entry): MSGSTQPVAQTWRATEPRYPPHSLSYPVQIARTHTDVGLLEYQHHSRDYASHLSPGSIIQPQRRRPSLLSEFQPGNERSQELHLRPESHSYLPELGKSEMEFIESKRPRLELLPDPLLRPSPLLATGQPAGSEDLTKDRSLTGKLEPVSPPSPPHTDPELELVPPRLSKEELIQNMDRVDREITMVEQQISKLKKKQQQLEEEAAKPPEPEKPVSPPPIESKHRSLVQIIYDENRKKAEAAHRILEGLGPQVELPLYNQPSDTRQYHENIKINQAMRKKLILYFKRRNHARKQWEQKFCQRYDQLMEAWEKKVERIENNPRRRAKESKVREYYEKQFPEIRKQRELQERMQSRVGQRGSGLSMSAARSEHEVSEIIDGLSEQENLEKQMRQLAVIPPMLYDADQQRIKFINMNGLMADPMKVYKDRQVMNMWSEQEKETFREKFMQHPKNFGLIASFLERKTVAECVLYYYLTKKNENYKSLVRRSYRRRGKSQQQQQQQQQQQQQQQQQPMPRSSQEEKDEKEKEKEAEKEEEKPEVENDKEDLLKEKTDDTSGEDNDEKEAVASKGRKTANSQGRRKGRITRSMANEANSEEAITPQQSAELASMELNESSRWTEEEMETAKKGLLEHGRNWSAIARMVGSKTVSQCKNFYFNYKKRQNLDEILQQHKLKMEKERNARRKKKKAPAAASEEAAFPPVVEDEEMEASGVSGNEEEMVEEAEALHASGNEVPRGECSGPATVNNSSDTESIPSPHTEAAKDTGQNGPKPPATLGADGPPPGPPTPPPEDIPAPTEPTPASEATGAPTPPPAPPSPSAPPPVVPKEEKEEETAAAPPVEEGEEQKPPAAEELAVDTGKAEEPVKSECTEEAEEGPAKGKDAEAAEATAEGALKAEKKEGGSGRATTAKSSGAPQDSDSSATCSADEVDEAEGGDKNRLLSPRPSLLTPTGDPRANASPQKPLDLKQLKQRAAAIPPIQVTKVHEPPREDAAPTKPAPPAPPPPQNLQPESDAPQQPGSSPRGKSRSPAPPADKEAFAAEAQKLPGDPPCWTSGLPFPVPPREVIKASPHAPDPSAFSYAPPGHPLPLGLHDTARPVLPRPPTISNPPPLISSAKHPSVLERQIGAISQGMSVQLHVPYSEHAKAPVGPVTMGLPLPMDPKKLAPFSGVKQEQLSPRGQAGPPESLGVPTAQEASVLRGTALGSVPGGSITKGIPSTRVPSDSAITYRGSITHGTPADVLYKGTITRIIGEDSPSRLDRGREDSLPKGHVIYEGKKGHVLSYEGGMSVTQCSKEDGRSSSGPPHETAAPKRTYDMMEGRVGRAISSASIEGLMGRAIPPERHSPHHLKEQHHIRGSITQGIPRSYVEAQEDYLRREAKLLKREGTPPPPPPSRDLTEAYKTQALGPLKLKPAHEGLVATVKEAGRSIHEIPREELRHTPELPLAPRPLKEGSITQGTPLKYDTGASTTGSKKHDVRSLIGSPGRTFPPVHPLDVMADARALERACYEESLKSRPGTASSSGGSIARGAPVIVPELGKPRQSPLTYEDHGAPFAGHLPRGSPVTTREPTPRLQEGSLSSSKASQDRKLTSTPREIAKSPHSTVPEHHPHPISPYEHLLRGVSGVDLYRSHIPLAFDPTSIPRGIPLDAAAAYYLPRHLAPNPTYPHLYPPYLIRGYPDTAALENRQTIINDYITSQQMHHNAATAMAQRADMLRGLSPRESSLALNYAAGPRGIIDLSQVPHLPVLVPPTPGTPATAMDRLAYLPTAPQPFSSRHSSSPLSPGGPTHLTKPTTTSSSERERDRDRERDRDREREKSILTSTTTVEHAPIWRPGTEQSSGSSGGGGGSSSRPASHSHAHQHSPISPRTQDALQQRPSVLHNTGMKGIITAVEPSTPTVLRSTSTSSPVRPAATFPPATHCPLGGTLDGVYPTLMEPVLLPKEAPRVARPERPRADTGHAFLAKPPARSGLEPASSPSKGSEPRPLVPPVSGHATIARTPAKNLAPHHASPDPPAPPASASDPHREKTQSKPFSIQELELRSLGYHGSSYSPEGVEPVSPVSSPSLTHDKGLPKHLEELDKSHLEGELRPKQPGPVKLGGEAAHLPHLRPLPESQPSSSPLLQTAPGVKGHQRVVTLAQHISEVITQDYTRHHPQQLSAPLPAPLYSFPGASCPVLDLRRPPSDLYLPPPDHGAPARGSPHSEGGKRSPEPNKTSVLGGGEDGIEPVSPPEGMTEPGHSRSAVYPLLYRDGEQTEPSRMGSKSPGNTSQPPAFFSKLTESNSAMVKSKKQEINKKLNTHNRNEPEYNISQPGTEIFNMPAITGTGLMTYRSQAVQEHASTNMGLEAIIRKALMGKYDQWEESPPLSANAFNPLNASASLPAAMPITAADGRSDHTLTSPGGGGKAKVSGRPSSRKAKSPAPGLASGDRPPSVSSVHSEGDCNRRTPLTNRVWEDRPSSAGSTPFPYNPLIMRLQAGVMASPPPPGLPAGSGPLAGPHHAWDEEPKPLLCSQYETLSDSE

For orientation: IC50 means the point on the concentration scale where inhibition reaches its midpoint. The term AC50 denotes the midpoint of the concentration-response curve, whichever way the signal moves. For `O=C1c2ccccc2C(=O)c2[nH]c(O)nc21`, the IC50 at Exodeoxyribonuclease V is > 119 µM (inactive). The AC50 at Paired box protein Pax-8 was 5.72 µM (active).

With `COC(=O)c1cc(C)nc2c1C(=O)C(=O)C=C2N1CCOCC1`, the IC50 in assay [1] was > 39.8 µM (not active). Moreover, the AC50 in the assay on INS1 was 2.71 µM (active).
